Experimental data reported in ChEMBL document CHEMBL5678816, “A Next-Generation TRK Kinase Inhibitor Overcomes Acquired Resistance to Prior TRK Kinase Inhibition in Patients with TRK Fusion-Positive Solid Tumors” (Cancer Discov, 2017).
The source made the active and inactive calls. No cut-off for these calls is given here.

Assays:
NIH3T3 = assay: In vivo inhibition of […] in nu/nu NCr mouse implanted with mouse NIH3T3 cells harboring extracellular domain deleted […] G595R mutant assessed as reduction in […] phosphorylation administered orally twice daily for 3 days and measured after 2 hrs post last dose by ELISA; type: functional; settings: dose 10-100 mg/kg, route po, time 3.0 day
647-V = assay: Inhibition of cell proliferation in human 647-V cells upto 10 umol/L incubated for 72 hrs by DAPI staining based analysis; type: functional; settings: dose <= 10.0 µmol/L
MDA-MB-468 = assay: Inhibition of cell proliferation in human MDA-MB-468 cells upto 10 umol/L incubated for 72 hrs by DAPI staining based analysis; type: functional; settings: dose <= 10.0 µmol/L
MG-63 = assay: Inhibition of cell proliferation in human MG-63 cells upto 10 umol/L incubated for 72 hrs by DAPI staining based analysis; type: functional; settings: dose <= 10.0 µmol/L
AU565 = assay: Inhibition of cell proliferation in human AU565 cells upto 10 umol/L incubated for 72 hrs by DAPI staining based analysis; type: functional; settings: dose <= 10.0 µmol/L
DU-145 = assay: Inhibition of cell proliferation in human DU-145 cells upto 10 umol/L incubated for 72 hrs by DAPI staining based analysis; type: functional; settings: dose <= 10.0 µmol/L
SNB-19 = assay: Inhibition of cell proliferation in human SNB-19 cells upto 10 umol/L incubated for 72 hrs by DAPI staining based analysis; type: functional; settings: dose <= 10.0 µmol/L
BHT-101 = assay: Inhibition of cell proliferation in human BHT-101 cells upto 10 umol/L incubated for 72 hrs by DAPI staining based analysis; type: functional; settings: dose <= 10.0 µmol/L
SW579 = assay: Inhibition of cell proliferation in human SW579 cells upto 10 umol/L incubated for 72 hrs by DAPI staining based analysis; type: functional; settings: dose <= 10.0 µmol/L
BXPC-3 = assay: Inhibition of cell proliferation in human BXPC-3 cells upto 10 umol/L incubated for 72 hrs by DAPI staining based analysis; type: functional; settings: dose <= 10.0 µmol/L
HT-1376 = assay: Inhibition of cell proliferation in human HT-1376 cells upto 10 umol/L incubated for 72 hrs by DAPI staining based analysis; type: functional; settings: dose <= 10.0 µmol/L
K562 = assay: Inhibition of cell proliferation in human K562 cells upto 10 umol/L incubated for 72 hrs by DAPI staining based analysis; type: functional; settings: dose <= 10.0 µmol/L
SCaBER = assay: Inhibition of cell proliferation in human SCaBER cells upto 10 umol/L incubated for 72 hrs by DAPI staining based analysis; type: functional; settings: dose <= 10.0 µmol/L
SCC-4 = assay: Inhibition of cell proliferation in human SCC-4 cells upto 10 umol/L incubated for 72 hrs by DAPI staining based analysis; type: functional; settings: dose <= 10.0 µmol/L
SCC-9 = assay: Inhibition of cell proliferation in human SCC-9 cells upto 10 umol/L incubated for 72 hrs by DAPI staining based analysis; type: functional; settings: dose <= 10.0 µmol/L
[1] = molecular target: Tyrosine-protein kinase Fes/Fps (Homo sapiens) (UniProt P07332); assay: Inhibition of Fes (unknown origin) at 1 uM in presence of ATP relative to control; values are per cent of control
[2] = molecular target: [Pyruvate dehydrogenase (acetyl-transferring)] kinase isozyme 1, mitochondrial (Homo sapiens) (UniProt Q15118); assay: Inhibition of PDK1 (unknown origin) at 1 uM in presence of ATP relative to control; values are per cent of control
[3] = molecular target: Serine/threonine-protein kinase N2 (Homo sapiens) (UniProt Q16513); assay: Inhibition of PRK2 (unknown origin) at 1 uM in presence of ATP relative to control; values are per cent of control
[4] = molecular target: Serine/threonine-protein kinase Sgk1 (Homo sapiens) (UniProt O00141); assay: Inhibition of SGK1 (unknown origin) at 1 uM in presence of ATP relative to control; values are per cent of control
[5] = molecular target: Serine/threonine-protein kinase STK11 (Homo sapiens) (UniProt Q15831); assay: Inhibition of LKB1 (unknown origin) at 1 uM in presence of ATP relative to control; values are per cent of control
[6] = molecular target: Maternal embryonic leucine zipper kinase (Homo sapiens) (UniProt Q14680); assay: Inhibition of MELK (unknown origin) at 1 uM in presence of ATP relative to control; values are per cent of control
[7] = molecular target: Serine/threonine-protein kinase ULK2 (Homo sapiens) (UniProt Q8IYT8); assay: Inhibition of ULK2 (unknown origin) at 1 uM in presence of ATP relative to control; values are per cent of control
[8] = molecular target: Serine/threonine-protein kinase WNK3 (Homo sapiens) (UniProt Q9BYP7); assay: Inhibition of WNK3 (unknown origin) at 1 uM in presence of ATP relative to control; values are per cent of control
[9] = molecular target: Dual specificity mitogen-activated protein kinase kinase 7 (Homo sapiens) (UniProt O14733); assay: Inhibition of MKK7 (unknown origin) at 1 uM in presence of ATP relative to control; values are per cent of control
[10] = molecular target: Serine/threonine-protein kinase 3 (Homo sapiens) (UniProt Q13188); assay: Inhibition of MST2 (unknown origin) at 1 uM in presence of ATP relative to control; values are per cent of control
[11] = molecular target: Serine/threonine-protein kinase TAO3 (Homo sapiens) (UniProt Q9H2K8); assay: Inhibition of TAO3 (unknown origin) at 1 uM in presence of ATP relative to control; values are per cent of control
[12] = molecular target: Protein-tyrosine kinase 2-beta (Homo sapiens) (UniProt Q14289); assay: Inhibition of FAK2 (unknown origin) at 1 uM in presence of ATP relative to control; values are per cent of control
[13] = molecular target: Testis-specific serine/threonine-protein kinase 1 (Homo sapiens) (UniProt Q9BXA7); assay: Inhibition of TSSK1 (unknown origin) at 1 uM in presence of ATP relative to control; values are per cent of control
[14] = molecular target: cAMP-dependent protein kinase catalytic subunit alpha (Homo sapiens) (UniProt P17612); assay: Inhibition of PKAC-alpha (unknown origin) at 1 uM in presence of ATP relative to control; values are per cent of control
[15] = molecular target: Protein kinase C epsilon type (Homo sapiens) (UniProt Q02156); assay: Inhibition of PKCepsilon (unknown origin) at 1 uM in presence of ATP relative to control; values are per cent of control
[16] = molecular target: Insulin-like growth factor 1 receptor (Homo sapiens) (UniProt P08069); assay: Inhibition of Activated IGF-1R (unknown origin) at 1 uM in presence of ATP relative to control; values are per cent of control

Sequence of Serine/threonine-protein kinase WNK3 (Homo sapiens) (Q9BYP7 whole entry): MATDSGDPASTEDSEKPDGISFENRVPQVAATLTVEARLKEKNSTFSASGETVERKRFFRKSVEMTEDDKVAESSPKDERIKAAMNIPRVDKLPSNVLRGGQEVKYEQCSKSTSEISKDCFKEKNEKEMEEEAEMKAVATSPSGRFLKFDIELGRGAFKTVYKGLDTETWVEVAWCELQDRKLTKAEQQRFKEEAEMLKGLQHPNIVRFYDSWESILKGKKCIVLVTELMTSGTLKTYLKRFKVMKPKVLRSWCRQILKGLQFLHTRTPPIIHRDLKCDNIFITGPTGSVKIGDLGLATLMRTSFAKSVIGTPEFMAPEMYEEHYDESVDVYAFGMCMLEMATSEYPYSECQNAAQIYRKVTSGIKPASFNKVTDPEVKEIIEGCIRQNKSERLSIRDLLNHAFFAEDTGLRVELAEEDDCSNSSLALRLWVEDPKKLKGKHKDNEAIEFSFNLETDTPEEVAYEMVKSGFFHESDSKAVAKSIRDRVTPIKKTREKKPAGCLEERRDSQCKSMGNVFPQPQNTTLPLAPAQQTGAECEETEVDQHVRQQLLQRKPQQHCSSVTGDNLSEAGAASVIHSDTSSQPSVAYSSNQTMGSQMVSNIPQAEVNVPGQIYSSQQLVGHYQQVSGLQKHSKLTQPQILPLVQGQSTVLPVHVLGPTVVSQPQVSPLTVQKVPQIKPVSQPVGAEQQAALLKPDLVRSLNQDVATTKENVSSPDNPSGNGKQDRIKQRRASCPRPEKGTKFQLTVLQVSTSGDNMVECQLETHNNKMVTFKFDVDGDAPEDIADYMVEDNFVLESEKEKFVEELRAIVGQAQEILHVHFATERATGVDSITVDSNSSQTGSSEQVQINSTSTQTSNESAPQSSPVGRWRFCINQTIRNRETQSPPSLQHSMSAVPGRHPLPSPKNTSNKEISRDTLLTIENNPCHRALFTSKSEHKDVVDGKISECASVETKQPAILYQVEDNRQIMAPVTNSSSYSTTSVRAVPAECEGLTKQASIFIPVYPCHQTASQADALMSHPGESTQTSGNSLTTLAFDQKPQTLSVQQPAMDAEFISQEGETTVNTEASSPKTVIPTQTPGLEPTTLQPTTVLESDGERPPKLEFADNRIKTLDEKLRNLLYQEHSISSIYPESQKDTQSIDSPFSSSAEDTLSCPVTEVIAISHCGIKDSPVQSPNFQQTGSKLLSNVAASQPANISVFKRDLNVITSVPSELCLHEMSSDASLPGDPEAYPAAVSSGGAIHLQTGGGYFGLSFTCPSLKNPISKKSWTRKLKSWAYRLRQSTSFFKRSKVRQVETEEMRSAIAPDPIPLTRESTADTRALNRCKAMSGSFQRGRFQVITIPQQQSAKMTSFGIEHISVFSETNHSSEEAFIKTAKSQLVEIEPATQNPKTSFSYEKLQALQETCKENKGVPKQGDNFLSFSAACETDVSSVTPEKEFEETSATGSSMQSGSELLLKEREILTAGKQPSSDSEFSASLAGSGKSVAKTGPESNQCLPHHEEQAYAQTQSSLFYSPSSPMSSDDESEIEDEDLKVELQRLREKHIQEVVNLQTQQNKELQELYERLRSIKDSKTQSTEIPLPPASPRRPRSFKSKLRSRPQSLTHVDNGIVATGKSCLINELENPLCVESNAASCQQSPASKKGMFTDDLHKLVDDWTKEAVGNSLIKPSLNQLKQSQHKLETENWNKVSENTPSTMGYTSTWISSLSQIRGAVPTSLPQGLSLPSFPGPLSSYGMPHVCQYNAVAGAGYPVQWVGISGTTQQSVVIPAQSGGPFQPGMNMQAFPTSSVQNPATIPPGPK
Sequence of Protein-tyrosine kinase 2-beta (Homo sapiens) (Q14289 whole entry, looked up): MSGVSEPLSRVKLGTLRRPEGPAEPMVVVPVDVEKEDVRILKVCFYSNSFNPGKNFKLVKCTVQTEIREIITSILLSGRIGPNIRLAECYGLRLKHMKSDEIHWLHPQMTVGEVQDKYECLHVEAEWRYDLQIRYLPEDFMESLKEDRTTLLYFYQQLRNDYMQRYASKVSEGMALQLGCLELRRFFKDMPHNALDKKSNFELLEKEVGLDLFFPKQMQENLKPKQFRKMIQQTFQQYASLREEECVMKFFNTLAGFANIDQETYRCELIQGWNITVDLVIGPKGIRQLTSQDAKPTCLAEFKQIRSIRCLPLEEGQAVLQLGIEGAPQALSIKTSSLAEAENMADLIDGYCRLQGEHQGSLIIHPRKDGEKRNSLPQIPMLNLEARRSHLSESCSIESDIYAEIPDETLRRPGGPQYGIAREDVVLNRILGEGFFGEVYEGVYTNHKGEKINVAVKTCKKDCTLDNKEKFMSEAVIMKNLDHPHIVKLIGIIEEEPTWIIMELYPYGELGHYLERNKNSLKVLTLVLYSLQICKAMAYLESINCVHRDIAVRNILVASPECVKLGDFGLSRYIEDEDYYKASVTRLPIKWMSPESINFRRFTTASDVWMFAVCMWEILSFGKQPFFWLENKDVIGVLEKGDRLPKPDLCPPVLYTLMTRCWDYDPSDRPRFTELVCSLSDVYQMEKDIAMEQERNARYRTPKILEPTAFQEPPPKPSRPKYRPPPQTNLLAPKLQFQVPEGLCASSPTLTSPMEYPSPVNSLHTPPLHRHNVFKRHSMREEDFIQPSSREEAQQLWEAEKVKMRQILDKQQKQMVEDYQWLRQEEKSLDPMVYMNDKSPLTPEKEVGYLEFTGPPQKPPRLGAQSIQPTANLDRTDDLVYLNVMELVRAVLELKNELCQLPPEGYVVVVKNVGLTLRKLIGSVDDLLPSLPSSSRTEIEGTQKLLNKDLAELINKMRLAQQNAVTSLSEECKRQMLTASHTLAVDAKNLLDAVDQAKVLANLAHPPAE
Sequence of Serine/threonine-protein kinase STK11 (Homo sapiens) (Q15831 whole entry): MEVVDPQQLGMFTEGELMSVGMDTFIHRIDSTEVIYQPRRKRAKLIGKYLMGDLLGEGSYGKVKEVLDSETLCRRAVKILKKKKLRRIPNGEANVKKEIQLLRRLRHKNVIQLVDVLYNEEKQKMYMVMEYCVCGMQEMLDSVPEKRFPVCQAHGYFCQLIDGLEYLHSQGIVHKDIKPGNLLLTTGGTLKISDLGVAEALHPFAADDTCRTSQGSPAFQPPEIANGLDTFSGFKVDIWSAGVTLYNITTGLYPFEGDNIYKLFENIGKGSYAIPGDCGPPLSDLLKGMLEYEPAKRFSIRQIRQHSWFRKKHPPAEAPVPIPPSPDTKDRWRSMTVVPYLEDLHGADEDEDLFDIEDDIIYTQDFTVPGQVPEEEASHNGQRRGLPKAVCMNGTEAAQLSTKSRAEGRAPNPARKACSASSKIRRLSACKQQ
Sequence of Maternal embryonic leucine zipper kinase (Homo sapiens) (Q14680 whole entry, looked up): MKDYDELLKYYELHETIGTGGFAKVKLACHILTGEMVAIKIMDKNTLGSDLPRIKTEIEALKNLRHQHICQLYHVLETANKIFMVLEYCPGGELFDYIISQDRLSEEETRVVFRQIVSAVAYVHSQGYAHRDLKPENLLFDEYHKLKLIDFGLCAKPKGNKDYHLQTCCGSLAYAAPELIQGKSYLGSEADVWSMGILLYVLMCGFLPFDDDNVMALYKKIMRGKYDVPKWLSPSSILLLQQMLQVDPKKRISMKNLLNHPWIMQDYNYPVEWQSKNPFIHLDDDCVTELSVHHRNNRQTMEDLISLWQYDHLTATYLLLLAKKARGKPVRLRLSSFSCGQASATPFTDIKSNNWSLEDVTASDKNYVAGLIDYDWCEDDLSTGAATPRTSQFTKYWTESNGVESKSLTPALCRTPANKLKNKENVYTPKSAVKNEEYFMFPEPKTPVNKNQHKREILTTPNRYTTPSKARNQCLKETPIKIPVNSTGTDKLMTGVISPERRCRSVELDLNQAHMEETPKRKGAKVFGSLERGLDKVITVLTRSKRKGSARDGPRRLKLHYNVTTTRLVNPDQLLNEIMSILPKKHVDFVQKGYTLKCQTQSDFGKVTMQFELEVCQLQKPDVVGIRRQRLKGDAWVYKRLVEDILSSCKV
Sequence of Serine/threonine-protein kinase N2 (Homo sapiens) (Q16513 whole entry, looked up): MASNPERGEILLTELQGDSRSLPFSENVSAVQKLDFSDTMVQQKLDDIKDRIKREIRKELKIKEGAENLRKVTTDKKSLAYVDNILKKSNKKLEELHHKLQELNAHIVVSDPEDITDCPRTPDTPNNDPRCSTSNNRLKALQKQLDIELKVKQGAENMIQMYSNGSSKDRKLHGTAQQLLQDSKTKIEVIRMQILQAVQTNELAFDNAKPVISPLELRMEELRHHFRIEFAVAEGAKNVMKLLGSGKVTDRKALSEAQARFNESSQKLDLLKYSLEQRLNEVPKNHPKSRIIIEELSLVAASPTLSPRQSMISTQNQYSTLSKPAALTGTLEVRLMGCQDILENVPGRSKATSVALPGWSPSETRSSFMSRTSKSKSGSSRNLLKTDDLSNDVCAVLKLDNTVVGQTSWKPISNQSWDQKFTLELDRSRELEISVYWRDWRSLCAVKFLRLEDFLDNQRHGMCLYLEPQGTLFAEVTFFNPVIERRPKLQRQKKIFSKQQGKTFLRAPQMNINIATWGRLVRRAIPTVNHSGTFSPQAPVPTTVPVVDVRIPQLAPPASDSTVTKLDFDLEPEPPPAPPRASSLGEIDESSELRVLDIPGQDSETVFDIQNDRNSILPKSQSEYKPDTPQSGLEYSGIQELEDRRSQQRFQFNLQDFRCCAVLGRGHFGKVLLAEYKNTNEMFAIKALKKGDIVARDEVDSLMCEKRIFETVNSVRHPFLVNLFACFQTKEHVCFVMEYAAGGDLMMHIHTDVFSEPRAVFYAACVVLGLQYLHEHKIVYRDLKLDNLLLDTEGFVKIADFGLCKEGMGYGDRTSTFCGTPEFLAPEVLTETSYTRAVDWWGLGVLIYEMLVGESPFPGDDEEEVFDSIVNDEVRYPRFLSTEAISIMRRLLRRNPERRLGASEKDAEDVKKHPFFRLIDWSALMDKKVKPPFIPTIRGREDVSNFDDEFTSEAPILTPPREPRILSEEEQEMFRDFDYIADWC

residual activity [1]: 99.5%
residual activity [2]: 101%
residual activity [3]: 100%
residual activity [4]: 124%
residual activity [5]: 108%
residual activity [6]: 104%
residual activity [7]: 96%
residual activity [8]: 110%
residual activity [9]: 115%
residual activity [10]: 112%
residual activity [11]: 102%
residual activity [12]: 89%
residual activity [13]: 99%
residual activity [14]: 109%
residual activity [15]: 102%
residual activity [16]: 84.5%
Structure (SMILES): C[C@@H]1CCc2ncc(F)cc2[C@H]2CCCN2c2ccn3ncc(c3n2)C(=O)N1 [SELITRECTINIB]
inhibition (NIH3T3): Dose-Dependent Effect
inhibition (647-V): inactive
inhibition (MDA-MB-468): inactive
inhibition (MG-63): inactive
inhibition (AU565): inactive
inhibition (DU-145): inactive
inhibition (SNB-19): inactive
inhibition (BHT-101): inactive
inhibition (SW579): inactive
inhibition (BXPC-3): inactive
inhibition (HT-1376): inactive
inhibition (K562): inactive
inhibition (SCaBER): inactive
inhibition (SCC-4): inactive
inhibition (SCC-9): inactive
